The source of these data is PubChem BioAssay AID330 (DTP/NCI, 2004).

Each structure is given as a SMILES string. Several values for one entry are separate records, joined by “and”; a condition that tells them apart may be missing. Equal entries are not always repeated. Toxic doses and inconclusive results are not listed. Square brackets hold non-standard residues; d marks the D form. Peptide text beside a SMILES is read from it. * marks the point of attachment. Cbz = O=C(OCc1ccccc1)*; Nva = CCC[CH](N)C(=O)O

This assay relates to P388 leukemia ip, CD2F1 mice, survival T/C. Description: NCI In Vivo Anticancer Drug Screen. Data for tumor model P388 Leukemia (intraperitoneal) in CD2F1 (CDF1) mice. The settings on record: endpoint: median survival time, higher = longer survival. In outline:
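Mice carrying the transplanted tumor received test compound or vehicle. Survival was recorded in each group, and the value is the treated-group measurement divided by that of the vehicle-treated control group.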

[1] abbreviates: dose: 50.0 mg/kg/injection, schedule: Q01DX005 (ip), vehicle: saline with Tween-80.
[2] abbreviates: dose: 100.0 mg/kg/injection, schedule: Q01DX005 (ip), vehicle: saline with Tween-80.
Where [3] appears, read: dose: 200.0 mg/kg/injection, schedule: Q01DX005 (ip), vehicle: saline with Tween-80.
The mark [4] stands for this setting: dose: 60.0 mg/kg/injection, schedule: Q01DX005 (ip), vehicle: saline with Tween-80.
Where [5] appears, read: dose: 120.0 mg/kg/injection, schedule: Q01DX005 (ip), vehicle: saline with Tween-80.
Setting [6] is: dose: 50.0 mg/kg/injection, schedule: Q01DX009 (ip), vehicle: Klucel (hydroxypropylcellulose) (HPC).
Setting [7] is: dose: 100.0 mg/kg/injection, schedule: Q01DX009 (ip), vehicle: Klucel (hydroxypropylcellulose) (HPC).
Setting [8] is: dose: 200.0 mg/kg/injection, schedule: Q01DX009 (ip), vehicle: Klucel (hydroxypropylcellulose) (HPC).
[9] abbreviates: dose: 50.0 mg/kg/injection, schedule: Q01DX009 (ip), vehicle: saline with Tween-80.
The mark [10] stands for this setting: dose: 100.0 mg/kg/injection, schedule: Q01DX009 (ip), vehicle: saline with Tween-80.
[11] abbreviates: dose: 200.0 mg/kg/injection, schedule: Q01DX009 (ip), vehicle: saline with Tween-80.

For `CC1(/C=N/NC(N)=O)NC(=O)NC1=O` (stereo not given), the T/C was 96 % of control under setting [1], 103 % of control under setting [2] and 96 % of control under setting [3].
For `CCN(CC)c1ccc2c(C)cc(=O)oc2c1`, the T/C runs as follows: (dose: 25.0 mg/kg/injection, schedule: Q04DX003 (ip), vehicle: DMSO) 92 % of control; (dose: 50.0 mg/kg/injection, schedule: Q04DX003 (ip), vehicle: DMSO) 88 % of control.
For the molecule `CC(C(=O)c1ccc(Cl)cc1)C1(O)C(=O)Nc2ccccc21` (stereo not given), the T/C was 108 % of control under setting [4]; 111 % of control under setting [5]; 94 % of control (dose: 240.0 mg/kg/injection, schedule: Q01DX005 (ip), vehicle: saline with Tween-80).
`COC1=C(C)C(=O)C2=C(C1=O)C(CO)N1C(C#N)C3CC4C(C1C2N1CCOC41)N3C` (stereo not given): the T/C (dose: 0.15 mg/kg/injection, schedule: Q01DX005 (ip), vehicle: acid diluted with saline) is 111 % of control and 117 % of control; the T/C (dose: 0.3 mg/kg/injection, schedule: Q01DX005 (ip), vehicle: acid diluted with saline) was 113 % of control; the T/C (dose: 0.4 mg/kg/injection, schedule: Q01DX005 (ip), vehicle: saline + alcohol) was 152 % of control; the T/C (dose: 0.6 mg/kg/injection, schedule: Q01DX005 (ip), vehicle: acid diluted with saline) is 123 % of control; the T/C (dose: 0.8 mg/kg/injection, schedule: Q01DX005 (ip), vehicle: saline + alcohol) was 154 % of control.
`COc1ccccc1/C=N\NC(=O)C(=O)N/N=C\c1ccccc1OC`: the T/C is 86 % of control under setting [6], 90 % of control under setting [7] and 98 % of control under setting [8].
On the same counts, the results for `O=c1oc(-c2ccccc2)nnc1-c1ccccc1` are 100 % of control, 101 % of control and 107 % of control.
Consider `Cn1c2ccccc2c(=O)c2ccc(Cl)cc21`, for which the T/C (dose: 25.0 mg/kg/injection, schedule: Q01DX009 (ip), vehicle: Klucel (hydroxypropylcellulose) (HPC)) is 117 % of control; the T/C under setting [6] was 111 % of control; the T/C under setting [7] is 114 % of control; the T/C under setting [8] is 88 % of control; the T/C (dose: 400.0 mg/kg/injection, schedule: Q01DX009 (ip), vehicle: Klucel (hydroxypropylcellulose) (HPC)) is 104 % of control.
As to `CCOc1cc(C)c(CC2NC(=O)NC2=O)cc1C(C)C` (stereo not given), the T/C is 100 % of control (dose: 100.0 mg/kg/injection, schedule: Q04DX003 (ip), vehicle: suspension in saline); 100 % of control (dose: 200.0 mg/kg/injection, schedule: Q04DX003 (ip), vehicle: suspension in saline); 88 % of control (dose: 400.0 mg/kg/injection, schedule: Q04DX003 (ip), vehicle: suspension in saline).
As for `CCOc1c(N=Nc2ccc(O)cc2)c(C)nn1C(=S)S`, the T/C was 115 % of control (dose: 60.0 mg/kg/injection, schedule: Q01DX005 (ip), vehicle: Klucel + Tween-80); 115 % of control (dose: 120.0 mg/kg/injection, schedule: Q01DX005 (ip), vehicle: Klucel + Tween-80); 118 % of control (dose: 240.0 mg/kg/injection, schedule: Q01DX005 (ip), vehicle: Klucel + Tween-80).
Consider `CC/C(=N\NS(=O)(=O)c1ccc(C)cc1)c1ccc(C)cc1`, for which the T/C (dose: 100.0 mg/kg/injection, schedule: Q04DX003 (ip), vehicle: saline) was 100 % of control; the T/C (dose: 200.0 mg/kg/injection, schedule: Q04DX003 (ip), vehicle: saline) was 98 % of control; the T/C (dose: 400.0 mg/kg/injection, schedule: Q04DX003 (ip), vehicle: saline) was 98 % of control.
As to `COC(=O)c1cc2cnc1CSCc1cnc(c(C(=O)OC)c1)CSC2`, the T/C was 96 % of control under setting [1], 96 % of control under setting [2] and 96 % of control under setting [3].
On to `C=C1C(=O)OC2C[C@@]3(C)CC(O)C[C@H](C)C3=CC12` (stereo not given in full), for which the T/C is, setting by setting: (dose: 10.0 mg/kg/injection, schedule: Q01DX009 (ip), vehicle: distilled water + Tween-80 + alcohol) 103 % of control; (dose: 20.0 mg/kg/injection, schedule: Q01DX009 (ip), vehicle: distilled water + Tween-80 + alcohol) 111 % of control; (dose: 37.5 mg/kg/injection, schedule: Q01DX009 (ip), vehicle: distilled water + Tween-80 + alcohol) 120 % of control; (dose: 40.0 mg/kg/injection, schedule: Q01DX009 (ip), vehicle: distilled water + Tween-80 + alcohol) 117 % of control; (dose: 75.0 mg/kg/injection, schedule: Q01DX009 (ip), vehicle: distilled water + Tween-80 + alcohol) 123 % of control.
Regarding `Oc1ccc(N=Cc2ccc(OCc3ccccc3)cc2)cc1`, the T/C was 97 % of control under setting [9], 93 % of control under setting [10] and 93 % of control under setting [11].
Consider `CCCC(NC(=O)OCc1ccccc1)C(=O)NC(CCSC)C(N)=O` (stereo not given) (Cbz-[Nva]-Met-NH2; configuration not given here), for which the T/C runs as follows: (dose: 50.0 mg/kg/injection, schedule: Q01DX005 (ip), vehicle: Klucel (hydroxypropylcellulose) (HPC)) 106 % of control; (dose: 100.0 mg/kg/injection, schedule: Q01DX005 (ip), vehicle: Klucel (hydroxypropylcellulose) (HPC)) 97 % of control; (dose: 200.0 mg/kg/injection, schedule: Q01DX005 (ip), vehicle: Klucel (hydroxypropylcellulose) (HPC)) 88 % of control.
On to `C=C(C)C12OC3(c4ccccc4)OC1C1C4OC4(CO)C(O)C4(O)C(=O)C(C)=CC4C1(O3)C(C)C2OC(=O)c1ccccc1` (stereo not given), for which the T/C is 91 % of control (dose: 0.1 mg/kg/injection, schedule: Q01DX009 (ip), vehicle: saline); 100 % of control (dose: 0.2 mg/kg/injection, schedule: Q01DX009 (ip), vehicle: saline); 90 % of control (dose: 0.4 mg/kg/injection, schedule: Q01DX009 (ip), vehicle: saline); 96 % of control (dose: 0.8 mg/kg/injection, schedule: Q01DX009 (ip), vehicle: saline).
In the case of `COc1cc2c(cc1OC)C13CCN4CC5=CCOC(CC(=O)O)C(C5CC41)C3N2` (stereo not given), the T/C was 100 % of control (dose: 15.0 mg/kg/injection, schedule: Q01DX005 (ip), vehicle: saline); 96 % of control (dose: 30.0 mg/kg/injection, schedule: Q01DX005 (ip), vehicle: saline); 99 % of control under setting [4]; 94 % of control and 93 % of control (dose: 60.0 mg/kg/injection, schedule: Q01DX005 (ip), vehicle: saline); 96 % of control (dose: 120.0 mg/kg/injection, schedule: Q01DX005 (ip), vehicle: saline).
Consider `CCOCCOCCOC12C(=O)C(Cl)=C(Cl)C(=O)C13C1CC2C(Cl)C13` (stereo not given), for which the T/C runs as follows: (dose: 12.5 mg/kg/injection, schedule: Q01DX009 (ip), vehicle: saline) 98 % of control; (dose: 25.0 mg/kg/injection, schedule: Q01DX009 (ip), vehicle: saline) 105 % of control; (dose: 50.0 mg/kg/injection, schedule: Q01DX009 (ip), vehicle: saline) 105 % of control and 106 % of control.
In the case of `Cc1ccc(C(=O)[O][Hg][CH2]C2COC([CH2][Hg][O]C(=O)c3ccc(C)cc3)CO2)cc1` (stereo not given), the T/C (dose: 25.0 mg/kg/injection, schedule: Q01DX009 (ip), vehicle: saline with Tween-80) was 116 % of control; the T/C under setting [9] was 113 % of control; the T/C under setting [10] is 100 % of control.
In the case of `CN(N=O)C(=O)NCCNC(=O)C1OC(n2ccc(=O)[nH]c2=O)C(O)C1O` (stereo not given), the T/C (dose: 100.0 mg/kg/injection, schedule: Q01DX009 (ip), vehicle: saline) is 108 % of control.
Regarding `O=C(Nc1ccccc1)OC(CS(=O)(=O)c1ccccc1)C(Cl)(Cl)Cl` (stereo not given), the T/C by setting is: under setting [1], 92 % of control; under setting [2], 96 % of control; under setting [3], 95 % of control.
For the molecule `CCCCc1c(C#N)c(=O)n2c(N)c(C(=O)OCC)cnc2c1SC`, the T/C is 104 % of control and 108 % of control (dose: 3.75 mg/kg/injection, schedule: Q01DX005 (ip), vehicle: saline with Tween-80); 117 % of control and 120 % of control (dose: 7.5 mg/kg/injection, schedule: Q01DX005 (ip), vehicle: saline with Tween-80); 120 % of control (dose: 15.0 mg/kg/injection, schedule: Q01DX005 (ip), vehicle: saline with Tween-80); 98 % of control under setting [4]; 92 % of control under setting [5].
As for `O=C(Nc1cccc(Cl)c1)Sc1c(Cl)c(Cl)c(Cl)c(Cl)c1Cl`, the T/C was 106 % of control under setting [9], 109 % of control under setting [10] and 112 % of control under setting [11].
For the molecule `Cc1ccccc1NC(=S)NC1C(=O)Nc2ccccc21` (stereo not given), the T/C is 101 % of control under setting [1], 107 % of control under setting [2] and 98 % of control under setting [3].
On the same counts, the results for `Cc1nc2ccccc2nc1NNc1ccccc1` are 90 % of control, 87 % of control and 87 % of control.
